Experimental data reported in patent US20250032590A1, “PARATHYROID HORMONE COMPOUNDS IN THE TREATMENT OF HYPOPARATHYROIDISM” (AMOLYT PHARMA, priority 2023, published 2025).
Entries after “also recorded” stand apart in the source; their conditions may differ. No end group written: not given here.

Experiments:
PTX mice = experiment: Serum calcium after single dosing in HP PTX mouse model (Example 1); format: in vivo; details: compared with PTH (1-34)
Excerpt: In FIG. 1, the black line indicates the impact of PTX in mice, resulting in serum calcium levels well below normal levels.

TPTX rats [1] = experiment: Serum calcium and phosphate, 28-day daily sc dosing in HP TPTX rat model (Example 2); format: in vivo; details: 7.7 μg/kg/day
Procedure: Thyroid-parathyroidectomized, or TPTX, rats were treated with daily subcutaneous injection of AZP-3601 at doses ranging from 3.8 μg/kg/day to 30.7 μg/kg/day. Treatment was continued for 28 days. […] The increase in calcium accumulated over time (over the first 15 to 21 days), but became more constant thereafter, indicating the development of a steady-state effect (FIG. 2). Due to the cumulative effect, lower doses of AZP-3601 were required to eventually increase blood calcium levels into the normal range as compared to the dose required with a single injection.

TPTX rats [2] = experiment: Urinary calcium, repeated daily sc dosing in HP TPTX rat model (Example 4); format: in vivo; details: 30.7 μg/kg/day
Procedure: To examine the effect of repeated dosing with AZP-3601 on urinary calcium levels, TPTX rats were treated with daily subcutaneous injection of AZP-3601 with doses ranging from 3.8 to 30.7 μg/kg/day. As additional controls, separate groups of TPTX rats received daily injections of either natural PTH (1-84) or the vehicle, and a group of normal (with intact thyroid and parathyroid glands, or sham) rats were injected with vehicle. […] The observed increase in urinary calcium excretion with the high dose was a normal kidney response to clear excess blood calcium (FIG. 4).

[3] = Plasma detectability after single injection in cynomolgus monkeys; format: in vivo, cynomolgus monkey
Procedure: To further examine how the potent and sustained biological activity induced by AZP-3601 could translate into potential clinical benefit for […] patients, its activity was examined in normal cynomolgus monkeys, a species much closer to humans and the most relevant for first in human dose-selection. Single injections of AZP-3601 were administered to normal cynomolgus monkeys. […] The dissociation between pharmacokinetic profile and pharmacodynamic effect is due to the short circulating half-life of AZP-3601 as opposed to the prolonged signaling caused by AZP-3601's potent interaction with the R^0 conformation of the PTH1 receptor.

Cynomolgus monkeys [4] = experiment: 13-week daily sc study in non-human primates: ex-vivo BMD (DXA), bone histopathology (Example 8); parameters: species or system cynomolgus monkey; details: Cynomolgus monkeys, 1, 2.5 or 10 μg/kg daily sc, 13 weeks
Procedure: (§1) To further examine the effect of chronic AZP-3601 treatment on bone, both 13-week and 39-week studies were conducted in non-human primates (NHP), which are considered a relevant species with regard to AZP-3601 effects on serum calcium. Groups of 3 or 4 Cynomolgus monkeys of each sex were given daily subcutaneous injections of either vehicle or AZP-3601 at doses of 1, 2.5 or 10 μg/kg for either 13 or 39 weeks, as outlined in Table 2.
• Ex-vivo bone mineral density (BMD) by dual-energy X-ray absorptiometry (DXA) at week 13; • Histopathological examination of bone at week 13.
(§2) At the end of the 13-week study, right femur, right tibia and the L4 lumbar vertebra were collected from 3 animals/group/sex and bone mineral density (BMD) was measured by dual-energy X-ray absorptiometry. The left femur was submitted to histopathological examination. […] In the 39-week study, blood samples were collected from 4 animals/group/sex prior to and during weeks 4, 8, 13, 26 and 39 of treatment for measurement of bone biomarkers. In-life BMD of left femur, left tibia and L4 lumbar vertebra was measured by quantitative computed tomography (qCT) prior to and during weeks 26 and 39 of treatment (FIGS. 9A, 9B, 9C, 9D, 9E and 9F). At the end of the treatment period, femurs were processed for histopathological examination.

Cynomolgus monkeys [5] = experiment: 39-week daily sc study in non-human primates: bone biomarkers, BMD (qCT), histopathology (Example 8); format: in vivo, cynomolgus monkey
Procedure: as §1
• Serum bone biomarkers at baseline and weeks 4, 8, 13, 26 and 39; • In-life BMD by quantitative computed tomography (qCT) at baseline and weeks 26 and 39; • Histopathological examination of bone at week 39.
as §2
Prior to treatment, BMD was homogeneous among all groups for all the three bone sites examined.

[6] = tested on: subjects with hypoparathyroidism (HP); experiment: Open-label multiple ascending dose study plus 2-month extension in subjects with hypoparathyroidism (Examples 10, 11); format: in vivo, human
Excerpt: Part C: Part C of the assessment was an open-label multiple ascending dose (MAD) study in male or female subjects with hypoparathyroidism (HP) who are on standard or care treatment (treatment with oral calcium and active vitamin D) to evaluate the safety and tolerability, PK, and PD of AZP-3601. Up to 2 cohorts of approximately 12 patients each were planned for this part of the study. Prior to the treatment period, there was an optimization period of up to 8 weeks during which doses of oral calcium and active vitamin D were adjusted to achieve a baseline target range of albumin-corrected serum calcium (7.8 to 9.0 mg/dL, ie, 1.95 to 2.25 mmol/L) and therefore ensuring a close baseline for all patients. During this optimization period, any serum 25-hydroxy vitamin D (native vitamin D) and/or magnesium deficiencies were corrected. During the treatment period, patients in Part C received AZP-3601 for 28 days as daily sc abdominal injections (with rotation of injection sites every dosing day). Doses of oral calcium and active vitamin D supplements were reduced during the initial 14 days of treatment while maintaining albumin-corrected serum calcium in the target range (7.8 to 9.0 mg/dL, ie, 1.95 to 2.25 mmol/L). Reductions of both oral calcium and active vitamin D supplements were performed using a staged approach until the active vitamin D dose were eliminated and the oral calcium dose were reduced to or below 500 mg/day. Based on animal data, serum calcium was expected to increase progressively following repeated administration of AZP-3601 and PD steady state was expected to be observed within the first 5 days of dosing. Staggered reductions of doses of oral calcium and active vitamin D supplements were therefore performed at near-steady state based on the predose albumin-corrected serum calcium value. The following treatments are administered in Part C in an open-label fashion: • Cohort C1: multiple sc doses of 20 mg AZP-3601 (n=12) qd from Day 1 to Day 28 (dose increase of AZP-3601 to 40 mg was allowed from Day 14 onwards) • Cohort C2: multiple sc doses of a fixed dose of 10 mg AZP-3601 (n=12) qd from Day 1 to Day 28 (dose of AZP-3601 may be increased at a fixed dose of 20 mg from Day 14 onwards)
During the extension phase, patients had their AZP-3601 dose increased in increments of 10 mg to a maximum dose of 60 mg (Cohort 1) and of 80 mg (Cohort 2).
The extension phase started immediately following Day 28 visit of the Main treatment period. Patients received AZP-3601 for 56 days (2 months) as daily sc injections from Day 29 onwards (with rotation of injection sites each day of administration). The goal was to optimize AZP-3601 dosing across a dose range while doses of oral calcium and active vitamin D were as low as safely possible and albumin-corrected serum calcium was maintained within the target range of 7.8 to 9.0 mg/dL (1.95 to 2.25 mmol/L). For patients who were taking minimal or no supplemental calcium (≤500 mg/day) and no vitamin D on Day 28, the AZP-3601 dose from the previous 14 days of treatment (Part C, Main Treatment Period) was maintained and adjusted when needed during the Extension Phase. For patients who were still taking active vitamin D and/or more than 500 mg/day of oral calcium on Day 28, a progressive reduction of supplements was carried out while increasing the dose of AZP-3601. […]

non-human primates = details: 10.7 μg/kg or 42.7 μg/kg; cited from earlier work
[7] = Cynomolgus monkeys, 1, 2.5 or 10 μg/kg daily sc, weeks 4 to 39
[8] = HP subjects of both cohorts, 84 days
[9] = HP subjects, various bone sites, including patients with osteopenia

AVAEIQLMHQRAKWIQDARRRAFLHKLIAEIHTAEI [AZP-3601, M-PTH(1-14)/PTHrP(15-36)]
half-life (PTX mice): equally short half-life as PTH (1-34)
change in bone at the optimal dose (TPTX rats [1]): without producing any significant change in bone
serum calcium at the highest dose (TPTX rats [2]): induced overt hypercalcemia
detectability in plasma post-dosing [3]: detectable in plasma for only up to one hour post-dosing
BMD of femur, tibia and L4 lumbar vertebra by DXA (Cynomolgus monkeys [4]): no evidence of any treatment-related effect
histopathological examination of femur (Cynomolgus monkeys [4]): no evidence of any treatment-related effect
anabolic bone biomarker P1NP (Cynomolgus monkeys [5]; [7]): no treatment-related changes; also recorded: no significant effect on either anabolic or catabolic bone biomarkers
catabolic bone biomarker CTx (Cynomolgus monkeys [5]; [7]): no treatment-related changes; also recorded: no significant effect on either anabolic or catabolic bone biomarkers
in-life BMD of femur, tibia and L4 lumbar vertebra by qCT (Cynomolgus monkeys [5]; Cynomolgus monkeys, 39-week study, versus pre-treatment values): no statistically significant changes in BMD
histological examination of the femur (Cynomolgus monkeys [5]; Cynomolgus monkeys, week 39): no noteworthy findings
bone mineral density (BMD) [6, 8]: remains stable
trabecular bone score (TBS) [6, 8]: remains stable
mean bone markers relative to upper limit of normal ([6]; HP subjects, 84 days): never increased either mean bone marker above the upper limit of normal level
T-score [6, 9]: remain stable
Z-score [6, 9]: remain stable
serum calcium at highest dose levels (non-human primates): induced significant hypercalcemia
